Test system: MRC5 cells
Experiment: MTT cell viability of MRC5 cells
Assay type: cell-based
Procedure: More specifically, 5.0 μg/ml of MTT in Eagles MEM supplemented with 2.0% (v/v) fetal bovine serum was added to each well, and incubated at 37° C. for 6 hr. The cells were then solubilized by adding 30% (w/v) SDS in 0.02N HCl. The cultures were incubated overnight at 37° C. Then, the optical density was measured at 570 nm on a spectrophotometer.

COc1ccc(C(=O)N2CCN(c3ccc4c(c3)CCC(=O)N4)CC2)cc1OC [vesnarinone, 3,4-dihydro-6-[4-(3,4-dimethoxybenzoyl)-1-piperazinyl]-2(1H)-quinoline]
MTT Cell Viability (% of control) (vesnarinone 3.88 μg/ml alone): 100 % of control | MTT Cell Viability (% of control) (vesnarinone 7.75 μg/ml alone): 98 % of control | MTT Cell Viability (% of control) (vesnarinone 15.5 μg/ml alone): 98 % of control | MTT Cell Viability (% of control) (vesnarinone 31 μg/ml alone): 90 % of control | cytotoxicity by MTT (vesnarinone 3.88-31 μg/ml, alone or with DHPG 0.625-5.000 μM): little or no cytotoxicity was observed
